Among the test systems are IGROV1 ovarian; SR leukemia; UO-31 renal; SK-OV-3 ovarian; OVCAR-5 ovarian; HOP-62 NSCLC; NCI-H226 lung; UACC-62 melanoma; CCRF-CEM leukemia; NCI/ADR-RES ovarian.
What all share (experiment): NCI-60 cell line screen, 48 h

The structures appear in SMILES notation.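 1) Cells in 96-well plates. 2) Compound, 48 h, 5 concentrations. 3) Linear interpolation between surrounding doses. 4) Unreached endpoint = highest concentration. GI50 = concentration required for 50% inhibition of growth. At the TGI there is no net growth.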

The source of these data is PubChem BioAssay (NCI).

Regarding `CCOc1ccc2c(c1)[n+]([O-])c(-c1ccc(Cl)cc1)c(N)[n+]2[O-]`, the TGI in the assay on IGROV1 ovarian, in the assay on SR leukemia, in the assay on UO-31 renal, in the assay on SK-OV-3 ovarian, with OVCAR-5 ovarian and with HOP-62 NSCLC was above 100 µM throughout. In the assay with NCI-H226 lung, this molecule gave a TGI above 100 µM.
Consider `COc1ccc(Br)c(N/N=C2\CCCNC2=O)c1`, for which the TGI in the assay on UACC-62 melanoma, in the assay with IGROV1 ovarian, with SR leukemia, in the assay on UO-31 renal, in the assay on CCRF-CEM leukemia and in the assay with SK-OV-3 ovarian was above 100 µM in each case. For the same molecule, the TGI in the assay with OVCAR-5 ovarian, in the assay with HOP-62 NSCLC and with NCI-H226 lung was above 100 µM in each case.
`CCN(CC)c1c(C(=O)/C=C/c2ccc(OC)cc2)c(-c2ccccc2)nn(C)c1=O`: the TGI in the assay with UACC-62 melanoma is 28.5 µM; in the assay on IGROV1 ovarian it was 68.8 µM; in the assay on SR leukemia, 44.7 µM; in the assay on UO-31 renal, above 100 µM; with CCRF-CEM leukemia it was 45.6 µM; in the assay with SK-OV-3 ovarian, above 100 µM. The values for the TGI with OVCAR-5 ovarian, in the assay on HOP-62 NSCLC and in the assay with NCI-H226 lung were 28 µM, above 100 µM and 47.9 µM, respectively.
In the case of `O=[N+]([O-])c1cc(C(F)(F)F)cc([N+](=O)[O-])c1CCl`, the TGI in the assay with UACC-62 melanoma is 1.21 µM; in the assay with IGROV1 ovarian, 6.09 µM; with SR leukemia, 2.72 µM; with UO-31 renal, 20.6 µM; in the assay with CCRF-CEM leukemia, 0.722 µM; in the assay on SK-OV-3 ovarian, 14.6 µM. Moreover, the TGI in the assay with OVCAR-5 ovarian was found to be 10.1 µM; in the assay on HOP-62 NSCLC, 30.6 µM; in the assay with NCI-H226 lung it was 3.11 µM.
For the molecule `O=C(O)C(SC(=S)c1ccc(C(=S)SC(C(=O)O)c2ccccc2)cc1)c1ccccc1` (stereo not drawn), the TGI in the assay with UACC-62 melanoma, in the assay with IGROV1 ovarian, in the assay with SR leukemia, in the assay on UO-31 renal, in the assay on CCRF-CEM leukemia and in the assay with SK-OV-3 ovarian was above 100 µM throughout. Further, the TGI in the assay with OVCAR-5 ovarian, with HOP-62 NSCLC and in the assay on NCI-H226 lung was above 100 µM each time.
For the molecule `CN1C(=Nc2ccccc2)SC1=Nc1ccccc1`, the TGI in the assay with UACC-62 melanoma, with IGROV1 ovarian, in the assay with SR leukemia, with UO-31 renal, in the assay with CCRF-CEM leukemia and in the assay with SK-OV-3 ovarian was above 100 µM each time. Further, the TGI with OVCAR-5 ovarian, with HOP-62 NSCLC and with NCI-H226 lung was above 100 µM throughout.
As to `COc1ccc2cc(C(=O)/C=C/c3ccc(Cl)cc3Cl)ccc2c1`, the GI50 with UACC-62 melanoma is 12 µM; with SR leukemia, 3.67 µM; in the assay with NCI/ADR-RES ovarian it was 23 µM; with UO-31 renal, 15.5 µM; in the assay on CCRF-CEM leukemia it was 6.74 µM; with SK-OV-3 ovarian, 61.6 µM. Moreover, the GI50 with OVCAR-5 ovarian was 48.4 µM; in the assay on HOP-62 NSCLC, 24 µM. Moreover, the TGI in the assay on UACC-62 melanoma was 86.5 µM; with SR leukemia, 17.3 µM; with NCI/ADR-RES ovarian it was above 100 µM; in the assay on UO-31 renal it was 32.3 µM; in the assay with CCRF-CEM leukemia, above 100 µM; in the assay with SK-OV-3 ovarian, above 100 µM. The TGI was above 100 µM in the assay on OVCAR-5 ovarian and 50.8 µM in the assay on HOP-62 NSCLC.
Consider `CCC[CH2][Sn]1([CH2]CCC)[O]C(=O)c2cccnc2[O]1`, for which the GI50 in the assay with UACC-62 melanoma was 1.8 µM; in the assay with IGROV1 ovarian, 4.57 µM; with SR leukemia, 1.65 µM; with UO-31 renal, 7.32 µM; in the assay with CCRF-CEM leukemia it was 0.731 µM; with SK-OV-3 ovarian it was 10 µM. Further, the GI50 was 11.9 µM in the assay with OVCAR-5 ovarian, 3.95 µM in the assay with HOP-62 NSCLC and 10.5 µM with NCI-H226 lung. In addition, the TGI with UACC-62 melanoma worked out at 3.94 µM; in the assay with IGROV1 ovarian it was 18.4 µM; in the assay with SR leukemia, 6.19 µM; with UO-31 renal, 19.9 µM; in the assay on CCRF-CEM leukemia it was 3.08 µM; in the assay with SK-OV-3 ovarian it was 22.1 µM. Moreover, the TGI in the assay with OVCAR-5 ovarian was 24.2 µM; in the assay on HOP-62 NSCLC it was 20.9 µM; with NCI-H226 lung, 23 µM.
Take `CCCCNc1nc(C#N)c(N)s1`: the TGI in the assay on UACC-62 melanoma, with IGROV1 ovarian, in the assay on SR leukemia, with UO-31 renal, with SK-OV-3 ovarian and with OVCAR-5 ovarian was above 100 µM throughout. The TGI in the assay on HOP-62 NSCLC and with NCI-H226 lung was above 100 µM in each case.
Turning to `CN(C)CC/C(=N\Nc1ccc([N+](=O)[O-])cc1)c1ccccc1`, the TGI in the assay with UACC-62 melanoma is 25.9 µM; in the assay with IGROV1 ovarian, 24.9 µM; in the assay on SR leukemia, 17.2 µM; with UO-31 renal, 6.02 µM; with CCRF-CEM leukemia, 23.6 µM; in the assay on SK-OV-3 ovarian, 29.8 µM. Moreover, the TGI in the assay on OVCAR-5 ovarian is 28.2 µM; with HOP-62 NSCLC it was 28.5 µM.
Consider `OC(c1ccccc1)(c1ccccc1)c1ccncc1`, for which the TGI in the assay with UACC-62 melanoma, in the assay with IGROV1 ovarian, with SR leukemia, in the assay on UO-31 renal, in the assay on CCRF-CEM leukemia and in the assay with SK-OV-3 ovarian was above 100 µM in each case. The TGI in the assay on OVCAR-5 ovarian, in the assay on HOP-62 NSCLC and in the assay on NCI-H226 lung was above 100 µM each time.
`Oc1c(C(Nc2cccc3cccnc23)c2ccccc2)ccc2cccnc12` (stereo not drawn): the TGI in the assay on UACC-62 melanoma is above 100 µM; with IGROV1 ovarian, 39.9 µM; with SR leukemia, 10.4 µM; in the assay on UO-31 renal it was above 100 µM; in the assay with CCRF-CEM leukemia, 78.8 µM; in the assay with OVCAR-5 ovarian it was above 100 µM. Further, the figures for the TGI in the assay with HOP-62 NSCLC and in the assay with NCI-H226 lung were above 100 µM and 9.79 µM, respectively.
Consider `c1ccc2c(c1)cc(C1NCCc3[nH]cnc31)c1ccccc12` (stereo not drawn), for which the TGI with UACC-62 melanoma is above 51.1 µM; in the assay on IGROV1 ovarian it was above 100 µM; in the assay with SR leukemia, 61.1 µM; in the assay with UO-31 renal, above 100 µM; in the assay with CCRF-CEM leukemia, above 67.9 µM; in the assay on SK-OV-3 ovarian, above 100 µM. Also, the TGI in the assay with OVCAR-5 ovarian is above 100 µM; in the assay on HOP-62 NSCLC, above 88.6 µM; in the assay with NCI-H226 lung, above 68.1 µM.
Take `CC(C)C1CC[C@@H](C)C[C@@]1(O)CC(N)=O` (stereo partly drawn): the TGI in the assay with UACC-62 melanoma, in the assay on IGROV1 ovarian, in the assay on SR leukemia, in the assay on UO-31 renal, in the assay on SK-OV-3 ovarian and with OVCAR-5 ovarian was above 100 µM each time. Also, the TGI with NCI-H226 lung is above 100 µM.
For the molecule `Clc1ccc(C2SCc3nc4ccccc4n32)c(Cl)c1` (stereo not drawn), the TGI was determined as 32 µM in the assay with UACC-62 melanoma; 31.5 µM in the assay with IGROV1 ovarian; 39.1 µM in the assay with SR leukemia; 24.9 µM in the assay with UO-31 renal; 40.8 µM in the assay with CCRF-CEM leukemia; 42.1 µM with SK-OV-3 ovarian. Besides, the TGI was 30.3 µM in the assay with OVCAR-5 ovarian, 27.5 µM in the assay on HOP-62 NSCLC and 30.4 µM in the assay with NCI-H226 lung.
Consider `Oc1ccccc1/C=C/c1csnn1`, for which the TGI in the assay with UACC-62 melanoma was above 100 µM; with IGROV1 ovarian it was above 100 µM; with SR leukemia, above 68 µM; in the assay with UO-31 renal, above 100 µM; in the assay on CCRF-CEM leukemia, above 100 µM; in the assay with SK-OV-3 ovarian, above 100 µM. Besides, the TGI with OVCAR-5 ovarian, in the assay with HOP-62 NSCLC and with NCI-H226 lung was above 100 µM in each case.
On to `CCOC(=O)NC(=O)c1cn(CCOC(=O)CCCCCCCCC(=O)OCCn2cc(C(=O)NC(=O)OCC)c(=O)[nH]c2=O)c(=O)[nH]c1=O`, for which the TGI with UACC-62 melanoma, with IGROV1 ovarian, in the assay on SR leukemia, in the assay with UO-31 renal, in the assay with CCRF-CEM leukemia and in the assay on OVCAR-5 ovarian was above 100 µM in each case. For the same molecule, the TGI in the assay on HOP-62 NSCLC and with NCI-H226 lung was above 100 µM throughout.
With `COc1cc(/C=C2/C(=O)N(C(=O)OCC(C)C)C(Cc3cc(OC)c(OC)c(C)c3OC)C(=O)N2Cc2ccccc2)c(OC)c(C)c1OC` (stereo not drawn), the TGI in the assay on UACC-62 melanoma, in the assay with IGROV1 ovarian, with SR leukemia, with UO-31 renal, with CCRF-CEM leukemia and with SK-OV-3 ovarian was above 100 µM throughout. Besides, the figures for the TGI with OVCAR-5 ovarian, in the assay with HOP-62 NSCLC and with NCI-H226 lung were above 100 µM, above 100 µM and 9.7 µM, respectively.
`CP1(=O)CCCCC1`: the TGI in the assay with UACC-62 melanoma, in the assay on IGROV1 ovarian, with SR leukemia, in the assay with UO-31 renal, with CCRF-CEM leukemia and in the assay with SK-OV-3 ovarian was above 100 µM each time. For the same molecule, the TGI with OVCAR-5 ovarian, with HOP-62 NSCLC and in the assay with NCI-H226 lung was above 100 µM each time.
For the molecule `Cc1ccc(S(=O)(=O)OC2CSS(=O)CC2OS(=O)(=O)c2ccc(C)cc2)cc1` (stereo not drawn), the TGI amounted to 29.2 µM with UACC-62 melanoma; 32.9 µM in the assay on IGROV1 ovarian; 8.15 µM in the assay on SR leukemia; 33 µM in the assay on UO-31 renal; 38.5 µM in the assay with SK-OV-3 ovarian; 32.1 µM with OVCAR-5 ovarian. Also, the results for the TGI with HOP-62 NSCLC and in the assay with NCI-H226 lung were 36.7 µM and 34.4 µM, respectively.
Turning to `CCOc1ccccc1N1C(=O)C(=O)C(c2nc3ccccc3o2)C(=O)C1=O`, the TGI in the assay with UACC-62 melanoma, in the assay with IGROV1 ovarian, in the assay on SR leukemia, in the assay with UO-31 renal, with CCRF-CEM leukemia and with SK-OV-3 ovarian was above 100 µM each time. Further, the TGI in the assay with OVCAR-5 ovarian, in the assay on HOP-62 NSCLC and in the assay on NCI-H226 lung was above 100 µM in each case.
`COC(=O)C1(C)CCC(c2ccc(C)cc2)=C(CC(=O)O)C1` (stereo not drawn): the TGI in the assay with UACC-62 melanoma, in the assay on IGROV1 ovarian, in the assay with SR leukemia, in the assay with NCI/ADR-RES ovarian, in the assay with SK-OV-3 ovarian and with OVCAR-5 ovarian was above 100 µM throughout. The same molecule had a TGI in the assay on HOP-62 NSCLC above 100 µM.
